# Results taken from patent publication US20230295066A1, “Process for the Efficient Preparation of (Bio)-Alkanediols” (Symrise AG, priority 2020, published 2023).
# Assays:
# Aspergillus brasiliensis = assay: Minimum Inhibitory Concentration (MIC) test, alkanediol mixtures; format: cell-based; details: for MICA: Comp. A alone; for MICB: Comp. B alone
# Method: (§1) The Minimum Inhibitory Concentration (MIC) test is a test on growth inhibition. The estimation of MICs is executed in 96 well plates. Through the comparison of bacterial growth with positive and negative controls via optical density (OD), different concentrations of given test substances are evaluated.
# (§2) Bacteria were cultivated under adjusted conditions based on information of the German Collection of Microorganisms and Cell Cultures (DSMZ) and stored in 50% glycerol prior to use. Afterwards, the following method was applied: Growth medium (according to microorganism) was added to each well of the microplate. Then, the test-substances were added in different concentrations, positive controls (water controls only with medium) and negative controls (benchmarks according to organism). Finally, the microorganisms were added in a concentration of 10^6 CFU/ml (CFU=colony forming units). The incubation of the microplates was carried out at appropriate conditions.
# (§3) According to the resulting growth, substance concentrations are labelled either as inhibiting or not and MIC is defined as the lowest concentration where a complete growth inhibition is visible. Experiments at concentration limits (highest concentration labelled as growth and lowest concentration labelled as inhibiting) are performed at least twice.
# (§4) Minimum Inhibitory Concentration (MIC) are given in ppm.
# To verify that the tested combinations act synergistically against microorganisms of the natural microbiota of mammalian skin, a corresponding experiment was conducted with Aspergillus brasiliensis, a well-known pathogen on the skin. The synergistic activities of different alkanediol mixtures including a 1,2-alkanediol (substance A) and a 2,3-alkanediol (substance B) in ratios as specified in the following Table 5 were determined by measuring the MIC of the mixture as indicated in methods section.
# In order to calculate the synergy index with MIC values, the Kull equation (I) was used as follows:
# SI=(MICmix×PA)/MICA+(MICmix×PB)/MICB
# wherein • SI is the Synergy Index according to Kull • MICA is the MIC value for Substance A in ppm • MICB is the MIC value for Substance B in ppm • MICmix is the MIC value for the mixture of substances A and B and C in ppm • PA is the proportion of the substance A in the mixture • PB is the proportion of the substance B in the mixture
# Staphylococcus aureus = assay: Minimum Inhibitory Concentration (MIC) test, synergy with antimicrobials; format: cell-based; details: for MICA: MIC value for Substance A alone; for MICC: MIC value for Substance C alone; for MICB: MIC value for Substance B alone
# Method: as §1, §2, §3, §4
# The synergistic activity of different combinations of 1,2-nonanediol (C9 nonanediol) and 1,2-heptanediol (C7 heptanediol) as components A and C in combination with different antimicrobial compounds (component B) was determined by measuring the corresponding Minimum Inhibitory Concentrations (MIC).
# To verify that the tested combinations act synergistically against microorganisms of the natural microbiota of mammalian skin, a corresponding experiment was conducted with Staphylococcus aureus, a well-known pathogen on the skin. The synergistic activities of 1,2-nonanediol (1,2-C9), 1,2-heptanediol (1,2-C7), 2,3-nonanediol (2,3-C9), 2,3-heptanediol (2,3-C7) and different antimicrobial compounds were determined by measuring the MIC of the mixture as indicated above.
# In order to calculate the synergy index with MIC values, the Kull equation (equation 6) was used as follows:
# SI=(MICmix×PA)/MICA+(MICmix×PB)/MICB+(MICmix×PC)/MICC Equation (6): Minimum Inhibitory Concentration
# wherein • SI is the Synergy Index according to Kull • MICA is the MIC value for Substance A in ppm • MICB is the MIC value for Substance B in ppm • MICC is the MIC value for Substance C in ppm • MICmix is the MIC value for the mixture of substances A and B and C in ppm • PA is the proportion of the substance A in the mixture • PB is the proportion of the substance B in the mixture • PC is the proportion of the substance C in the mixture
# [1] = Solubility in sunflower oil; format: physicochemical; details: result in words
# [2] = tested on: reactive oxygen species (ROS) on ex vivo skin; assay: DCF assay, ROS score on ex vivo skin biopsies; format: cell-based; details: Cumene hydroperoxide 0.5M
# Method: A dichlorofluorescein test (DCF) assay was performed in order to determine the amount of reactive oxygen species (ROS) on ex vivo skin treated with different test samples in a lipophilic or an aqueous/alcoholic system as described below.
# DCF assay—assay principle: Ex vivo skin was incubated with 2′,7′-dichlorodihydrofluorescein diacetate at 37° C., 5% CO2. After PBS washing, the samples were exposed or not to cumene hydroperoxide. Immediately after exposure, ex vivo skin samples were frozen in liquid nitrogen and 5 μm cryostat sections were made and fixed with acetone to allow the visualization of fluorescence generated by ROS in cells of the reconstructed skins. The resulting fluorescence was measured at EX/EM 504/524 nm. Green fluorescence was quantified in ex vivo skin using ImageJ software. The depth of immunostaining was measured as follows: green DCFH-DE positive cells were automatically detected using Histolab software and the distance between dermal epidermal junction and the deepest positive cells were measured in each condition. Means were compared using a student's test. Two means were considered statistically different when p<0.005.
# The image acquisition was performed by using Olympus BX51 microscope and Olympus DP70 camera. For each skin sample two skin sections have been taken and the related fluorescent images acquired and analysed. Thus, for each test condition, 12 images have been acquired and analysed (i.e. 12 data). The analysis of fluorescence has been performed within the dermis area. For each image the upper dermis has been analysed by evaluating the fluorescence through modified Image-J application (NIH, USA). The analysed area is selected from the upper part by following the perimeter of the basal lamina, to the deep dermis, by carefully avoiding the risk of including irregularities and agglomerates, such as blood vessels, sebaceous glands, hair follicles. The obtained value has been normalized upon the dimension of the selected area.
# In addition, as positive control an AOX mix is always co-tested, i.e., as benchmark for the ROS analysis. The AOX mix is a mixture of the following antioxidants: 15% vitamin C, 1% vitamin E, 0.5% ferulic acid in a EtOH/H2O (50:50) mixture.
# ROS score method description: The pigmentation score is based on the following process steps: • (1) Analysis of the image based on pixel grey intensities; • (2) Selection of an informative area excluding the pixel area not covered from tissue; • (3) Transformation of pixel grey intensities in degrees of L*; • (4) Normalization of the obtained values on the ratio between the selected area and the area of the slide.
# An increased level of ROS (reactive oxygen species) led to an increased amount of fluorescence. […]
compound,measurement,setting,value
"CCCCC(O)CO (stereo not drawn) [1,2-C6, 1,2-hexanediol]",MICA,Aspergillus brasiliensis,7500 ppm
"CCCCCC(O)CO (stereo not drawn) [1,2-C7, 1,2-heptanediol]",MICA,Staphylococcus aureus,7500 ppm
same,MICA,Aspergillus brasiliensis,5000 ppm
"CCCCCCC(O)CO (stereo not drawn) [1,2-C8, 1,2-octanediol]",MICA,Aspergillus brasiliensis,2500 ppm
same,Solubility in sunflower oil / oil phase,[1],tends to precipitate or recrystallize
"CCCCCCCC(O)CO (stereo not drawn) [1,2-C9, 1,2-nonanediol]",MICA,Staphylococcus aureus,1000 ppm
same,MICA,Aspergillus brasiliensis,500 ppm
"CCCC(O)C(C)O (stereo not drawn) [2,3-C6, 2,3-hexanediol]",MICB,Aspergillus brasiliensis,20000 ppm
"CCCCC(O)C(C)O (stereo not drawn) [2,3-C7, 2,3-heptanediol]",MICC,Staphylococcus aureus,20000 ppm
same,MICB,Aspergillus brasiliensis,7500 ppm
"CCCCCC(O)C(C)O (stereo not drawn) [2,3-C8, 2,3-octanediol]",MICB,Aspergillus brasiliensis,2500 ppm
same,Solubility in sunflower oil / oil phase,[1],good solubility
"CCCCCCC(O)C(C)O (stereo not drawn) [2,3-C9, 2,3-nonanediol]",MICC,Staphylococcus aureus,2500 ppm
same,MICB,Aspergillus brasiliensis,1000 ppm
"O=C(CCc1ccc(O)cc1)Nc1ccccc1C(=O)O [50 ppm DHAvD, Dihydroavenanthramide D]","ROS score, Mean Score","[2]; ex vivo skin, mean of 12 tests",1.72
same,D percent vs. - A cumene,[2]; ROS score,−14%
same,D percent vs. untreated cumene,[2]; ROS score,−21%
same,D percent vs. untreated/No cumene,[2]; ROS score,1645%
"OCc1ccccc1 [Benzyl alcohol, reference compound]",MICB,Staphylococcus aureus,5000 ppm
"CCCCCCCC(=O)NO [Capryl hydroxamic acid, reference compound]",MICB,Staphylococcus aureus,1000 ppm
o-Cymen-5-ol [reference compound],MICB,Staphylococcus aureus,250 ppm
